# Measured values as given in article PMC3961306, “Comparison of the Cancer Gene Targeting and Biochemical Selectivities of All Targeted Kinase Inhibitors Approved for Clinical Use” (PLoS ONE, 2014).
# Where two headings read alike, the source gives them in different places.
# Legend:
# Experiment in all cases: Kinase profiling in a biochemical assay panel (mobility shift assays and ELISA), %-inhibition at 1 μM; selectivity entropy
# [1] = molecular target: panel of more than 300 wild-type and mutant kinases (313 kinase panel) (Homo sapiens, UniProt P08069)
# [2] = molecular target: T1, panel of more than 300 wild-type and mutant kinases (313 kinase panel) (Homo sapiens, UniProt P29323)
# T1 sequence (P29323 19-1055): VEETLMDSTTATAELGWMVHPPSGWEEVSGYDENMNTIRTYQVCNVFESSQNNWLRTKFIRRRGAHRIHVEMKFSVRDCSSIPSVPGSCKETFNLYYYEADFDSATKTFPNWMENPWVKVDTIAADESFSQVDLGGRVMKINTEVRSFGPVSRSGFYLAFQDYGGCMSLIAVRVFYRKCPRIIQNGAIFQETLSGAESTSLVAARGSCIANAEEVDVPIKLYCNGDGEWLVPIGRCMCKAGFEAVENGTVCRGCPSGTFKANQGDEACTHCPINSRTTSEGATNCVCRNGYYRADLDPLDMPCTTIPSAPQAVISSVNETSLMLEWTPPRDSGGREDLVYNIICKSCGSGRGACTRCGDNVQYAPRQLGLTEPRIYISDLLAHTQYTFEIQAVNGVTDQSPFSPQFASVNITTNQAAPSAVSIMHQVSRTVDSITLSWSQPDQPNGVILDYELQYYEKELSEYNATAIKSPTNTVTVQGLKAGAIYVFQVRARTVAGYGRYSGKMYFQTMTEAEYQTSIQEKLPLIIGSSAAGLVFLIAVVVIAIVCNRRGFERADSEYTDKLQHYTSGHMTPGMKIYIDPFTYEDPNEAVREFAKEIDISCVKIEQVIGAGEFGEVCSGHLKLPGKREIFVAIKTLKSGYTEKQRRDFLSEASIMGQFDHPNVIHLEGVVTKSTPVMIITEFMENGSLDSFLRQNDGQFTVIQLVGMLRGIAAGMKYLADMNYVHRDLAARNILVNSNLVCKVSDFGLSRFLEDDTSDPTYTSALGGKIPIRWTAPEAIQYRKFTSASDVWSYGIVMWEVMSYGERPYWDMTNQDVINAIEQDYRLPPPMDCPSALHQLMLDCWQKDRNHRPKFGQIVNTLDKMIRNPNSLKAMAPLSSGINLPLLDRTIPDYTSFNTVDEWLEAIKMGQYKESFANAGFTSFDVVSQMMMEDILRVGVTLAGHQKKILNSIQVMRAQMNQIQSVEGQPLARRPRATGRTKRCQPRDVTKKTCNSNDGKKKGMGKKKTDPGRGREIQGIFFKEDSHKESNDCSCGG
# [3] = molecular target: panel of more than 300 wild-type and mutant kinases (313 kinase panel) (Homo sapiens, UniProt P49760)
# [4] = molecular target: panel of more than 300 wild-type and mutant kinases (313 kinase panel) (Homo sapiens, UniProt P50750)
# [5] = molecular target: panel of more than 300 wild-type and mutant kinases (313 kinase panel) (Homo sapiens, UniProt Q8N568)
# [6] = molecular target: T2, panel of more than 300 wild-type and mutant kinases (313 kinase panel) (Homo sapiens, UniProt Q9BXA7)
# T2 sequence (Q9BXA7 1-367): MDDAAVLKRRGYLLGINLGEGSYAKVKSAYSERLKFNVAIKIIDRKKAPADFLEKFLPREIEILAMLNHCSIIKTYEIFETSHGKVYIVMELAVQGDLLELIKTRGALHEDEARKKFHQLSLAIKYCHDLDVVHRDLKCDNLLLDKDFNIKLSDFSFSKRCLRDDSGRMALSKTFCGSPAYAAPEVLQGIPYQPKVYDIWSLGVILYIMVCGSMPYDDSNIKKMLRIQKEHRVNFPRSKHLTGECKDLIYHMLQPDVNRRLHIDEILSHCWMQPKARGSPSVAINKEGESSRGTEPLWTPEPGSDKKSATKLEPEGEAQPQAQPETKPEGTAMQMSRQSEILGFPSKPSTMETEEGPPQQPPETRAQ
# [7] = molecular target: T3, panel of more than 300 wild-type and mutant kinases (313 kinase panel) (Homo sapiens, UniProt P52564)
# T3 sequence (P52564 1-334): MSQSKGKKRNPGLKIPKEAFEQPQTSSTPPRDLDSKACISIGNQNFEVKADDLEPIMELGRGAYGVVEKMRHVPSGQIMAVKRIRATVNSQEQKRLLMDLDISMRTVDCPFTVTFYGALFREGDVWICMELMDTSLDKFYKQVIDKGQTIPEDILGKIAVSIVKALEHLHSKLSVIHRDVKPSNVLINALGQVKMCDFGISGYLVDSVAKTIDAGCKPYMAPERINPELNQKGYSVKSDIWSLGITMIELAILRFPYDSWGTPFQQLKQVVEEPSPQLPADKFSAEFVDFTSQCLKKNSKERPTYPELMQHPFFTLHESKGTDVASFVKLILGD
# [8] = molecular target: panel of more than 300 wild-type and mutant kinases (313 kinase panel) (Homo sapiens, UniProt Q8IU85)
# [9] = kinase CDK9/CycT1, 1 μM compound
# [10] = kinase DCAMKL2, compound at 1 μM
# [11] = kinase MAP2K6, compound at 1 μM
Structure (SMILES),"%-inhibition of IGF1R ([1]; kinase IGF1R, compound at 1 μM) [%]","%-inhibition of EPHB2 ([2]; kinase EPHB2, compound at 1 μM) [%]","%-inhibition, CLK2 ([3]; kinase CLK2, 1 μM compound) [%]","%-inhibition, CDK9/CycT1 [4, 9] [%]","%-inhibition of DCAMKL2 [5, 10] [%]","%-inhibition of TSSK1 ([6]; kinase TSSK1, 1 μM) [%]","%-inhibition of MAP2K6 [7, 11] [%]","%-inhibition, CaMK1δ ([8]; kinase CaMK1δ, 1 μM compound) [%]",%-inhibition of IGF1R [1] [%],%-inhibition of EPHB2 ([2]; 1 µM) [%],"%-inhibition, CLK2 ([3]; 1 µM) [%]","%-inhibition, CDK9/CycT1 ([4]; 1 µM) [%]",%-inhibition of MAP2K6 ([7]; 1 µM) [%],"%-inhibition, CaMK1δ ([8]; 1 µM) [%]",%-inhibition of DCAMKL2 ([5]; 1 µM) [%],%-inhibition of TSSK1 ([6]; 1 µM) [%]
Cc1ccc(C(=O)Nc2ccc(CN3CCN(C)CC3)c(C(F)(F)F)c2)cc1C#Cc1cnc2cccnn12 [ponatinib],17,102,-3.36,16,-3.72,-4,,,,,,,,,,
CC(C)(C)c1nc(-c2cccc(NS(=O)(=O)c3c(F)cccc3F)c2F)c(-c2ccnc(N)n2)s1 [dabrafenib],,-3.38,0.875,,19,8,1.34,,,,,,,,,
COc1cc(Nc2c(C#N)cnc3cc(OCCCN4CCN(C)CC4)c(OC)cc23)c(Cl)cc1Cl [bosutinib],15,95,-0.431,-4.22,-2.32,29,,,,,,,,,,
Cc1nc(Nc2ncc(C(=O)Nc3c(C)cccc3Cl)s2)cc(N2CCN(CCO)CC2)n1 [dasatinib],,,,-0.25,2,-4.66,47,,,,,,,,,
CO[C@H]1C[C@@H]2CC[C@@H](C)[C@@](O)(O2)C(=O)C(=O)N2CCCC[C@H]2C(=O)O[C@H]([C@H](C)C[C@@H]2CC[C@@H](OC(=O)C(C)(CO)CO)[C@H](OC)C2)CC(=O)[C@H](C)/C=C(\C)[C@@H](O)[C@@H](OC)C(=O)[C@H](C)C[C@H](C)/C=C/C=C/C=C/1C [temsirolimus],-4.62,-5.66,-4.4,-3.29,-4,-7,15,-7,,,,,,,,
C#Cc1cccc(Nc2ncnc3cc(OCCOC)c(OCCOC)cc23)c1 [erlotinib],,,,,,,,,7,23,8,2.63,6,-3.68,5,3.5
CCCS(=O)(=O)Nc1ccc(F)c(C(=O)c2c[nH]c3ncc(-c4ccc(Cl)cc4)cc23)c1F [vemurafenib],10,-2.11,-13,1.33,-3.52,-4,31,-7,,,,,,,,
N#CC[C@H](C1CCCC1)n1cc(-c2ncnc3[nH]ccc23)cn1 [ruxolitinib],1.31,5.54,15,-3.29,,39,44,,,,,,,,64,
CC(=O)Nc1cccc(-n2c(=O)n(C3CC3)c(=O)c3c(Nc4ccc(I)cc4F)n(C)c(=O)c(C)c32)c1 [trametinib],-10,-8,-5,-2.31,-2.4,-5,-21,-3.3,,,,,,,,
COc1cc2c(Nc3ccc(Br)cc3F)ncnc2cc1OCC1CCN(C)CC1 [vandetanib],-1.72,96,-18,,-5,2.66,18,-3,,,,,,,,
CS(=O)(=O)CCNCc1ccc(-c2ccc3ncnc(Nc4ccc(OCc5cccc(F)c5)c(Cl)c4)c3c2)o1 [lapatinib],3.73,4.6,,,7,-3.21,,-4,,,3.6,0.501,9,,,
CO[C@H]1C[C@@H]2CC[C@@H](C)[C@@](O)(O2)C(=O)C(=O)N2CCCC[C@H]2C(=O)O[C@H]([C@H](C)C[C@@H]2CC[C@@H](OCCO)[C@H](OC)C2)CC(=O)[C@H](C)/C=C(\C)[C@@H](O)[C@@H](OC)C(=O)[C@H](C)C[C@H](C)/C=C/C=C/C=C/1C [everolimus],-3.24,-7,-17,-4,-5.64,-6,13,-8,,,,,,,,
CCN(CC)CCNC(=O)c1c(C)[nH]c(/C=C2\C(=O)Nc3ccc(F)cc32)c1C [sunitinib],,81,97,,,85,,,,,,,,,,
CNC(=O)c1cc(Oc2ccc(NC(=O)Nc3ccc(Cl)c(C(F)(F)F)c3)c(F)c2)ccn1 [regorafenib],-1.72,84,-24,1,-6,-7,93,-5.29,,,,,,,,
C[C@@H](Oc1cc(-c2cnn(C3CCNCC3)c2)cnc1N)c1c(Cl)ccc(F)c1Cl [crizotinib],,57,-6,5,49,21,19,-4,,,,,,,,
Cc1ccc(Nc2nccc(N(C)c3ccc4c(C)n(C)nc4c3)n2)cc1S(N)(=O)=O [pazopanib],,16,0.914,31,-2.72,-1.56,78,-1.49,,,,,,,,
